One data set deals with T1, FSHR (Homo sapiens, UniProt P23945).
T1 construct: expressed in transfected cells; host or cells: CHO (Cho-FSHR-LUC-1-1-43)
T1 sequence (P23945 18-695): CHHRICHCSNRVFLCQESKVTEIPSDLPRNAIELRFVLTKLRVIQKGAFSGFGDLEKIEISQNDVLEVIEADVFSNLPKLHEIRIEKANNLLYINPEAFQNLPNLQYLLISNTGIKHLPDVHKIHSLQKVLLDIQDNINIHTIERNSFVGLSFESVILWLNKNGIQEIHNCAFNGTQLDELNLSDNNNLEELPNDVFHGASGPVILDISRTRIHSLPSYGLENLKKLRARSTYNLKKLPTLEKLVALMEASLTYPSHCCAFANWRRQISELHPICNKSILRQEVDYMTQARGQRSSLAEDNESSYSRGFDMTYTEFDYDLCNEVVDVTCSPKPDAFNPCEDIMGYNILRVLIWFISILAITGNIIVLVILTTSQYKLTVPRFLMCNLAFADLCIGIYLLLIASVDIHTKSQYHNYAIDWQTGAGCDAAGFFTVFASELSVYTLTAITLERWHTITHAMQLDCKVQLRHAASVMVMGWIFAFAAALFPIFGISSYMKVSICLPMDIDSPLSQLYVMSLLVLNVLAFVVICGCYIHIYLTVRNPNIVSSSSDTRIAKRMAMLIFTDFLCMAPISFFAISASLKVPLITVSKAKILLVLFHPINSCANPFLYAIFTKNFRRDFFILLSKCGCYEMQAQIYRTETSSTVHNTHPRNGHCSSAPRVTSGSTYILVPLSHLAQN
In words: EC50 of cyclic AMP production in CHO FSHR cells + EC20 FSH (HTRF). The format is cell-based. The following applies: Cho-FSHR-LUC-1-1-43 cells; for EC50: + EC20 FSH (0.265 pM), 200 μM IBMX, 1 h at 37° C., read-out: EC50 of cAMP production; for EC50 of cAMP production (% effect) / Emax: + EC20 FSH, % effect in brackets; for Emax: 1 h, read-out: EC50 of cAMP production (% effect). The method, then: EC50 of Cyclic AMP Production in CHO FSHR Cells+EC20 FSH
2500 Cho-FSHR-LUC-1-1-43 cells were plated per well in 5 μL of phenol red free DMEM/F12+1% FBS. Cells were plated in 384 well, solid white low volume plates (Greiner 784075) by Multidrop. Cells were assayed by adding […] of 2×EC20 FSH/IBMX in DMEM/F12+0.1% BSA) by Multidrop to 2 μL of test compound stamped in 384 well plates (compounds are diluted 1:50). The final FSH concentration was 0.265 pM, and the final IBMX concentration was 200 μM. The compound plate map was as follows: Column 1: 2 μL of DMSO; Column 2: 2 μL of DMSO; Columns 3-12 and 13-24: 2 μL of test compound, diluted 1:4 in 100% DMSO, or 2 μL of FSH, diluted 1:4 in DMEM/F12+0.1% BSA. The starting concentration for FSH was 50 nM (final concentration was 0.5 nM). Furthermore, Column 23 contained 2 μL of EC100 FSH reference (100×) (diluted in DMEM/F12+0.1% BSA) at a final concentration of 0.5 nM, and Column 24 contained 2 μL of 1 mM AS707664/2 reference compound 2. 5 μL of compound+EC20 FSH mixture were transferred to cell plates (1:2 dilution into 5 μL of cell media) The plates were incubated at 37° C. for 1 h. 10 μL of mixed HTRF (CisBio #62AM4PEC) reagents were added per well and incubated at room temperature for 1 h. The plates were read on Envision using the cAMP HTRF—low volume 384 well protocol. The readout was the calculated fluorescence ratio (665 nm/620 nm).
(In general: Time-resolved FRET reads energy transfer from a long-lived donor to a nearby acceptor.)

A short description of data set [1]: Intrinsic clearance (Clint) in human liver microsomes. Format: in vitro ADME. The following applies: 0.5 mg/mL protein, NADPH, up to 30 min, first value of human/rat; for Clint (human): human liver microsomes; for microsomal CLint at 0.8 μM: human, liver microsomes, pH 7.4, human liver microsomes. How it is done: (§1) Intrinsic Clearance (Clint) Assay Protocol:
(§2) A Tecan Genesis workstation (RSP 150/8) was used for to perform the microsomal incubations. Analysis was carried out using a Waters ACQUITY UPLC system coupled to an ABSciex API3000 mass spectrometer. Data analysis was performed using Assay Explorer (Symyx).
(§3) 0.1 M potassium phosphate buffer pH 7.4 containing 1 mM MgCl2 15 mM NADPH in phosphate buffer 4.4 mg protein/mL liver microsomes in phosphate buffer acetonitrile 20% DMSO in water
(§4) Each experiment consists of 12 test and 2 reference compounds. The reference compounds are incubated as a cocktail. Dilution of test compounds was done in 2 steps from a 10 mM DMSO stock solution. First 4 μL stock solution was added to 196 μL of 20% DMSO in potassium phosphate buffer pH 7.4. In a second step 10 μL of the first dilution were added to […] potassium phosphate buffer and 100 μL internal standard solution to a final concentration of 0.8 μM. 100 μL of the final compound dilution were aliquoted into a 96 deep well plate. 12.5 μL liver microsomes were added to each well (0.5 mg/mL final protein concentration) and the samples preincubated for 5 min at 37° C. and 800 rpm agitation.
(§5) After the preincubation, 250 μL cold acetonitrile were added to the 0 min samples to prevent a reaction. Following this, 12.5 μL NADPH solution were added to all wells to start the incubation, with the exception of the 0 min and 30 min controls without cofactor, where the NADPH was substituted for phosphate buffer.
(§6) The incubations were stopped after 5, 10, 20 and 30 min by adding 250 μL cold acetonitrile to the individual wells.
(§7) The quenched samples were then centrifuged at 4000 g for 1 h at 4° C. 100 μL of the supernatant were transferred into 96 well plates for analysis.
(§8) The metabolic stability of each compound was determined by measurement of the change in LC-MS/MS peak area over time. Assay Explorer software was used to automatically calculate the slope k of the decline. The intrinsic clearance (Clint) of each compound was then calculated according to the formula:
(§9) Clint (μL/min/mg protein)=k1000/protein concentration.

The nature of data set [2]: Intrinsic clearance (Clint) in rat liver microsomes. The format is in vitro ADME. The following applies: 0.5 mg/mL protein, NADPH, up to 30 min, second value of human/rat; for Clint (rat): rat liver microsomes; for microsomal CLint at 0.8 μM: rat, liver microsomes, pH 7.4, rat liver microsomes. How it is done: as §1, §2, §3, §4, §5, §6, §7, §8, §9
For orientation: Microsomes from liver hold many membrane-bound enzymes, among them those of drug oxidation.

Experimental findings from patent publication US20150111933A1, “Deuterated Thiazolidinone Analogues as Agonists for Follicle Stimulating Hormone Receptor” (Merck Patent GmbH, priority 2012, published 2015) are described below.

One may read the EC50 as the midpoint of the concentration-response curve. For orientation: microsomal CLint means the rate of metabolic loss divided by the concentration.

With “3-((2S,5R)-4-oxo-5-(2-oxo-2-((1,1,2,2-d4-2-(3-ethoxy-4-methoxy-d3-phenyl)ethyl)amino)ethyl)-2-(2,3,5,6-d4-4-(phenylethynyl)phenyl)thiazolidin-3-yl)benzamide [Compound 15]”, on FSHR, the EC50 was 600 pM and the “EC50 of cAMP production (% effect)” value is reported as “(99) %”.
Consider “3-((2S,5R)-4-oxo-5-(2-oxo-2-((2-(3,4-dimethoxyphenyl-d6l)ethyl)amino)ethyl)-2-(4-(phenylethynyl)phenyl)thiazolidin-3-yl)benzamide [Compound 7]”, for which, at FSHR, the EC50 turned out to be 500 pM and the “EC50 of cAMP production (% effect)” value is “(99) %”. Moreover, the “Clint (human)” value in data set [1] was found to be 184 μL/min/mg protein. Moreover, the “Clint (rat)” value in data set [2] is 44 μL/min/mg protein.
“3-((2S,5R)-5-(2-((3-ethoxy-4-methoxyphenethyl)amino)-2-oxoethyl)-4-oxo-2-(4-((phenyl-d5)ethynyl)phenyl)thiazolidin-3-yl)benzamide [Compound 8]”: on FSHR, the EC50 is 1700 pM and the “EC50 of cAMP production (% effect)” value is “(99) %”. Besides, in data set [1], the “Clint (human)” value turned out to be 188 μL/min/mg protein. For the same compound, the “Clint (rat)” value in data set [2] turned out to be 54 μL/min/mg protein.
Regarding `[2H]C([2H])(NC(=O)C[C@H]1S[C@@H](c2ccc(C#Cc3ccccc3)cc2)N(c2cccc(C(N)=O)c2)C1=O)C([2H])([2H])c1ccc(O)c(OC)c1` (single isomer, unassigned) [Compound 1], the Emax on FSHR was found to be 99%. For the same compound, the EC50 at FSHR amounted to 870 pM. Also, the values for the microsomal CLint at 0.8 μM in data set [1] and in data set [2] were 67 µL/min/mg and 31 µL/min/mg, respectively.
`[2H]C([2H])(NC(=O)C[C@H]1S[C@@H](c2ccc(C#Cc3ccccc3)cc2)N(c2cccc(C(N)=O)c2)C1=O)C([2H])([2H])c1ccc(OC)c(OCC)c1` (single isomer, unassigned) [Compound 4]: at FSHR, the Emax stood at 99% and the EC50 amounted to 700 pM. The “Clint (human)” value in data set [1] came to 191 μL/min/mg protein. The microsomal CLint at 0.8 μM in data set [2] worked out at 51 µL/min/mg.
As to `[2H]C([2H])([2H])Oc1ccc(C([2H])([2H])C([2H])([2H])NC(=O)C[C@H]2S[C@@H](c3ccc(C#Cc4ccccc4)cc3)N(c3cccc(C(N)=O)c3)C2=O)cc1OCC` (single isomer, unassigned) [Compound 5], at FSHR, the Emax was determined as 99% and the EC50 amounted to 800 pM. Also, the microsomal CLint at 0.8 μM in data set [1] worked out at 168 µL/min/mg. Also, the microsomal CLint at 0.8 μM in data set [2] came to 45 µL/min/mg.
As for `[2H]C([2H])([2H])Oc1ccc(CCNC(=O)C[C@H]2S[C@@H](c3ccc(C#Cc4ccccc4)cc3)N(c3cccc(C(N)=O)c3)C2=O)cc1OCC` (single isomer, unassigned) [Compound 6], the Emax at FSHR was found to be 96%. Further, the EC50 on FSHR stood at 700 pM. The microsomal CLint at 0.8 μM stood at 208 µL/min/mg in data set [1] and 56 µL/min/mg in data set [2].
As to `[2H]c1c([2H])c([2H])c(C#Cc2ccc([C@@H]3S[C@H](CC(=O)NC([2H])([2H])C([2H])([2H])c4ccc(OC)c(OCC)c4)C(=O)N3c3cccc(C(N)=O)c3)cc2)c([2H])c1[2H]` (single isomer, unassigned) [Compound 9], on FSHR, the Emax came to 97% and the EC50 came out at 300 pM. Besides, the microsomal CLint at 0.8 μM in data set [1] came out at 181 µL/min/mg. The microsomal CLint at 0.8 μM in data set [2] was 31 µL/min/mg.
For the compound `[2H]c1c([2H])c([2H])c(C#Cc2ccc([C@@H]3S[C@H](CC(=O)NC([2H])([2H])C([2H])([2H])c4ccc(O)c(OC)c4)C(=O)N3c3cccc(C(N)=O)c3)cc2)c([2H])c1[2H]` (single isomer, unassigned) [Compound 11], at FSHR, the Emax came to 99% and the EC50 is 335000 pM.
For `[2H]c1c([2H])c([C@@H]2S[C@H](CC(=O)NC([2H])([2H])C([2H])([2H])c3ccc(OC([2H])([2H])[2H])c(OCC)c3)C(=O)N2c2cccc(C(N)=O)c2)c([2H])c([2H])c1C#Cc1ccccc1` (single isomer, unassigned) [Compound 16], in that order: 100% and 700 pM.
For `[2H]c1c([2H])c([2H])c(C#Cc2ccc([C@@H]3S[C@H](CC(=O)NCCc4ccc(O)c(O)c4)C(=O)N3c3cccc(C(N)=O)c3)cc2)c([2H])c1[2H]` [Compound 12, 3-((2S,5R)-5-(2-((3,4-dihydroxyphenethyl)amino)-2-oxoethyl)-4-oxo-2-(4-((2,3,4,5,6-phenyl-d5)ethynyl)phenyl)thiazolidin-3-yl)benzamide], in that order: 99% and 220000 pM.
The like results for `[2H]c1c([2H])c([2H])c(C#Cc2ccc([C@@H]3S[C@H](CC(=O)NC([2H])([2H])C([2H])([2H])c4ccc(OC([2H])([2H])[2H])c(OC)c4)C(=O)N3c3cccc(C(N)=O)c3)cc2)c([2H])c1[2H]` [Compound 13, 3-((2S,5R)-4-oxo-5-(2-oxo-2-((1,1,2,2-d4-2-(3-ethoxy-4-methox-d3-yphenyl)ethyl)amino)ethyl)-2-(4-((phenyl-d5)ethynyl)phenyl)thiazolidin-3-yl)benzamide] were, in that order, 97% and 1300 pM.
For the compound `[2H]c1c([2H])c([C@@H]2S[C@H](CC(=O)NC([2H])([2H])C([2H])([2H])c3ccc(OC([2H])([2H])[2H])c(OC([2H])([2H])[2H])c3)C(=O)N2c2cccc(C(N)=O)c2)c([2H])c([2H])c1C#Cc1ccccc1` [Compound 17, 3-((2S,5R)-4-oxo-5-(2-oxo-2-((1,1,2,2-d4-2-(3,4-dimethoxy-d6-phenyl)ethyl)amino)ethyl)-2-(2,3,5,6-d4-4-(phenylethynyl)phenyl-d5)thiazolidin-3-yl)benzamide], on FSHR, the Emax was 100% and the EC50 came out at 900 pM.
